Where two headings read alike, the source gives them in different places.
Tests used:
[1] = tested on: PDK-dependent activation of Akt1; test: In vitro PDK-dependent Akt1 phosphorylation and activity assay (immunoprecipitated PDK1 and Akt1, GSK-3 fusion protein substrate); type: biochemical, human (SH-SY5Y, HEK293), mouse (C2C12); settings: for IC50: in vitro Aβ conditions; for Ki: monomeric-predominant preparations
Procedure: Akt1 was immunoprecipitated (IP) overnight from 100 μg of the human brain sample or from C2C12 myotubes infected with adenovirus encoding Aβ using a 1:100 dilution of goat anti-Akt1 antibody. The following morning, 40 μl of a 50% slurry of protein G-Agarose (PGA) (Roche Applied Science) was added for an additional 1.5 hours. The beads were washed twice with wash buffer [1× phosphate buffered saline (PBS), 0.5% NP-40, 0.1 mM Na3VO4] and twice with kinase buffer [25 mM Tris (pH 7.5), 2 mM DTT, 0.1 mM Na3VO4, 10 mM MgCl2]. ATP (200 μM) and GSK-3 fusion protein (1 μg/50 μl) were added in the presence of kinase buffer, and the final reaction (50 μl) was incubated 30 minutes at 30° C. The reaction was stopped by adding 40 μl of Laemmli buffer. 20 μl of sample was loaded onto a 10% polyacrylamide gel for fractionation and western detection development.
Immunoprecipitates (IPs) of PDK1 and Akt were prepared from 100 μg of either SH-SY5Y, C2C12 myotubes or from insulin-treated cultures. ATP (200 μM), GSK-3 fusion protein (1 μg/50 μl) and kinase buffer were added to the reaction. Various Aβ peptides were finally added at 0.01, 0.1, 1, 5, 10, 20 μM. Akt activity level was otherwise determined as above.

[2] = target: T1, c-AMP-dependent protein kinase A (PKA) (Bos taurus, UniProt P00517); test: PKA activity assay (GSK-3 substrate phosphorylation); type: biochemical, bovine; settings: Aβ 10 μM, PKA 2U
T1 construct: purified c-AMP-dependent protein kinase A (PKA, Promega) from bovine heart; purchased Promega; host or cells: bovine heart (tissue-purified)
Procedure: Recombinant Phosphatase and Tensin Homolog (PTEN; R & D Systems, Minneapolis, Minn.), purified PP2A from human erythrocytes (Upstate, Temecula, Calif.), and purified c-AMP-dependent protein kinase A (PKA, Promega) from bovine heart were stored at −20 and used freshly. PKA inhibitor (PKI, Biosource) and PI3K inhibitor, LY294002 (Cell Signaling) were diluted to 20 or 10 μM in kinase buffer. Antibodies used were: anti-cdk4 (polyclonal), Akt, Actin (polyclonal), and IRa (polyclonal) (Santa Cruz); p-Akt (polyclonal; Ser473 and Thr308), p-GSK-3α/0 (polyclonal; Ser21/9), GSK-30 (polyclonal), IRP (monoclonal), p-Tyrosine (monoclonal), and p-PDK (polyclonal, Ser241) (Cell Signaling, Danvers, Mass.); IRS-1 (monoclonal) and PDK (monoclonal) (BD Biosciences); PI3K (polyclonal, p85) and SGK (polyclonal) (Upstate, Temecula, Calif.); Rictor (polyclonal) (Bethyl Laboratories, Montgomery, Tex.); 6E10 (monoclonal; Covance Co.); R1282 (polyclonal; gift from Dr. Selkoe's lab). Phospholipase A2 (PLA2) was from Sigma. The lipids phosphatidylinositol-tris-3,4,5-phosphate, dipalmitoyl, (PIP3) (Matreya LLC, Pleasant Gap, Pa.), and D-myo-Phosphatidylinositol (PtdIns; PI) (Echelon, Salt Lake City, Utah) were diluted into water or CHCl3:MeOH:H2O (1:2:0.8), aliquoted into 100 μg vials and stored at −20° C. […]

[3] = FIG. 7A, vs reverse peptide 5 μM

IC50 ([1]; FIG. 7A, read-out: PDK-dependent Akt1 phosphorylation (Ki50)): ~10000 nM
IC50 ([1]; activity assay, FIG. 7A, listed as Aβ, read-out: PDK-dependent Akt1 activation (Ki50)): ~1000 nM
IC50 ([1]; activity assay, FIG. 7A, read-out: PDK-dependent Akt1 activation (Ki50)): 1000 nM
Ki ([1]; read-out: Ki in activity assays): ~2000 nM
Ki ([1]; read-out: Ki in western blots of p-Akt levels): ~10000 nM
PKA phosphorylation of GSK-3 α/β substrate [2]: not inhibited
Substance: Aβ42: synthetic 42 amino acid β-amyloid peptide, forward sequence, freshly prepared, predominantly monomeric (BioSource)
effect on PDK-stimulated Akt activity (GSK-3 substrate phosphorylation) ([1]; 5 μM (or doses up to 5 μM)): dramatically inhibited
effect on PDK-stimulated Akt activity / Akt phosphorylation ([1]; 10 μM): completely abrogated
inhibition of Akt phosphorylation ([1]; 10 μM, freshly prepared predominantly monomeric peptide): up to 50%
effect on PDK-stimulated Akt activity / Akt phosphorylation ([1]; 10 μM, listed as Aβ): inhibited
concentrations that significantly inhibit Akt phosphorylation (activation) [1, 3]: ≥ 10 µM
concentrations that significantly inhibit the stimulation of Akt activity [1, 3]: ≥ 5 µM
concentration at which Akt activation (pSer473, pThr308) and Akt activity begin to be affected ([1]; SH-SY5Y IP kinases, FIG. 6B): ~1 μM
PDK stimulation of Akt activity after preincubation and washout ([1]; preincubation of both IP kinases, washout before kinase reaction): no inhibitory effect
